Data as given in patent US8598314B2 (priority 2007, dated 2013).
Entries after “also recorded” stand apart in the source; their conditions may differ.

Assays:
[1] = test system: Dahl salt-sensitive (DSS) male rats; assay: Congestive heart failure (CHF) in vivo assay; conditions: 10 μg/kg/day subcutaneous infusion, high-salt diet
Method: In this assay, Dahl salt-sensitive (DSS) male rats were weaned at 21 days of age, maintained on a low-salt (LS) diet (0.2% NaCl) for 2 weeks. Rats were anesthetized with ketamine/xylazine (50 mg/kg/10 mg/kg, IP) and telemetry transmitters (Data Sciences, Inc.) were inserted to the aortic artery when rats were at 5 weeks of age. After surgery, the rats were allowed 10 days to recuperate before their BP (systolic and diastolic pressures) was recorded.
HS control animals (n=10 rats) were administered vehicle (50% DMSO) and fed HS in the same manner. LS control animals (n=5 rats) were maintained on the LS diet.

ACE from rabbit lung = target: T1, ACE from rabbit lung (Oryctolagus cuniculus, UniProt P12822); assay: ACE inhibition assay; format: biochemical
T1 construct: ACE from rabbit lung; purchased Sigma Chemical Co; host or cells: rabbit lung tissue
T1 sequence (P12822 34-1310): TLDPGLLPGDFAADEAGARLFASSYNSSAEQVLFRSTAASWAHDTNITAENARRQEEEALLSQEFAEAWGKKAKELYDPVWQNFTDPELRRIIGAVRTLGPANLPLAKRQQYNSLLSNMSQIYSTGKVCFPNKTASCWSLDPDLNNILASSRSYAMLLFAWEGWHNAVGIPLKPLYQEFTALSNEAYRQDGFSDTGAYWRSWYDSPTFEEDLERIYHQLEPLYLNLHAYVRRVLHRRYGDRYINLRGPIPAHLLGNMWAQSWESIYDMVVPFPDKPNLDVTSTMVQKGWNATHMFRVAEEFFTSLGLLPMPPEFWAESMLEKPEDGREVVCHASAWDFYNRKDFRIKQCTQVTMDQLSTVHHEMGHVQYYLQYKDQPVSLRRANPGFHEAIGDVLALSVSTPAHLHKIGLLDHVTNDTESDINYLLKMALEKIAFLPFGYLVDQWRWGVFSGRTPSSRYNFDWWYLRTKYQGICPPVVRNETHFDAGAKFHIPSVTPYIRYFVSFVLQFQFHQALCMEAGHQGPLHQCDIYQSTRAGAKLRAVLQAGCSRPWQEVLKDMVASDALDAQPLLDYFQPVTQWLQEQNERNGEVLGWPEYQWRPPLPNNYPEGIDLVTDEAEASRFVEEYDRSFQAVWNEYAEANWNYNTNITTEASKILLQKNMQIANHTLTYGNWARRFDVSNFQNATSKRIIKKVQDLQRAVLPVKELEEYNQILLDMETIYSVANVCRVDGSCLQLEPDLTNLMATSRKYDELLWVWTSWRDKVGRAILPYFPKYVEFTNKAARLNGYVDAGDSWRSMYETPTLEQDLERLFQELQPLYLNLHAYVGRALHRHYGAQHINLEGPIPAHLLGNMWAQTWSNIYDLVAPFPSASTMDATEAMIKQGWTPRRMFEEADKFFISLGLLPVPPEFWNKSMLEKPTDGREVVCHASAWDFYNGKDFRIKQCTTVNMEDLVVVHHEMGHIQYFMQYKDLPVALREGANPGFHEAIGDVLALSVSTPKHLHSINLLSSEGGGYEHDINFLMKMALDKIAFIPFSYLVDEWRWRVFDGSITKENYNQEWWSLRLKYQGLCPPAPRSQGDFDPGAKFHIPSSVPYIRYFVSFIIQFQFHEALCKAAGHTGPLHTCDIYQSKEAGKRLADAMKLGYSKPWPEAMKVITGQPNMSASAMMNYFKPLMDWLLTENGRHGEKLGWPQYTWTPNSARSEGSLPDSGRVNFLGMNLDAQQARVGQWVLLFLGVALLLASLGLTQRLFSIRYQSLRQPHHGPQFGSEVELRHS
Method: Peptide-ACE peptidase inhibitor conjugate compounds were assessed in an ACE inhibition assay using purified ACE enzyme and chromogenic substrates. An ACE stock solution was prepared by dissolving 0.1 unit of enzyme (ACE from rabbit lung, Sigma Chemical Co., St. Louis, Mo.) in 0.640 mL of HEPES buffer (0.1 M, pH=8). A 2 mM stock solution of substrate (N-benzyloxycarbonyl-Phe-His-Leu-OH) dissolved in methanol. The ACE inhibitor compounds were dissolved in phosphate buffer (0.1 M, pH=8) at concentrations of 0.0, 1, 10, 20, 60 and 100 μM. For the inhibition assay, six 2 mL microcentrifuge tubes were prepared containing 1.45 mL of phosphate buffer pH=8, 0.05 mL of 10% NaCl and 0.015 mL of substrate solution. To each microcentrifuge tube was added 0.015 mL of one of the ACE inhibitor compound's stock solutions. The solutions were heated at 37° C. for about 5 minutes. The reaction was started by the addition of 5 μL of the ACE stock solution to each tube mixture (30 seconds in between). The reaction mixtures were incubated at 37° C. After 5 min, 10 min, 30 min and 60 min., aliquots of 100 μL were taken from each tube (each sample was taken in intervals of 30 seconds). Tubes containing the 100 μL sample were floated in a boiling water bath for 5 min. and then cooled. The reaction samples were then treated with 20 μL of 2M NaOH and 20 μL of 0.1% phthaldialdehyde solution. The tubes were shaken for 4 minutes and 10 μL of 6 M HCl were added. […] Initial rates were determined from linear portions of product release curves. Starting substrate concentration in all assays was 20 μM. Apparent binding constants (Kd^app or Ki^app) of inhibitors to ACE were determined by fitting inhibition curves (initial rate vs. inhibitor concentration) to equation:
[formula] where v0 is reaction rate in the absence of inhibitor and [I]-inhibitor concentration. Fits were done by least-squares method using KaleidaGraph 3.6 (Synergy Software, Reading Pa.).

NIH/Swiss mice = assay: Oral glucose tolerance test (OGTT), glucose lowering; format: in vivo; conditions: IP injection, 2 hour fasted NIH/Swiss mice, FIGS. 5 and 6
Method: . Test compounds were injected IP (t=0 min) immediately following baseline measurements of 2 hour fasted NIH/Swiss mice. Blood samples were taken at 60, 120, and 180 minutes after injection. In some assays, samples were also taken at 240 minutes after the injection. Blood glucose was measured with a One-Touch® Ultra® glucose meter (LifeScan, Inc., Milpitas, Calif.). […].
The tests were performed as described in Example 5.

in vitro = conditions: human, kidney or brush border membranes, pH 7.4
Method: The tubes were incubated in VorTemp 56™ (Eurotech Labs, UK) at 37° C. vortexed at 500 RPM. At time points of 0, 1, 2, 3, 4, and 5 hours, 200 μl STOP solution (50% ACN, 1% formic acid) was added to a given tube, and the samples were allowed to incubate until the end of the experiment. The samples were collected after 5 hours, centrifuged, and 200 μl of the supernatants were transferred into mass spectrometry vials. The intensities of the mother ions in each vial were analyzed with API 150EX™ mass spectrometer (Applied Biosystems, Foster City, Calif.) and quantified using the ANALYST™ program.
The hKBBM assay was also performed in the presence of valinepyrrolidide, a DPP-IV inhibitor.

recombinant DPP-IV = recombinant DPP-IV in assay buffer (25 mM Tris-HCl, 140 mM NaCl, 10 mM KCl, pH 7.4); conditions: room temperature, up to 15 hours

| Compound | glucose lowering in OGTT (in words) (NIH/Swiss mice) | remaining at 4 h (in vitro) | not cleaved (recombinant DPP-IV) | also measured |
| --- | --- | --- | --- | --- |
| CC[C@H](C)[C@H](NC(=O)[C@H](Cc1ccccc1)NC(=O)[C@H](CC(C)C)NC(=O)[C@H](CCCNC(=N)N)NC(=O)[C@@H](NC(=O)[C@H](C)NC(=O)[C@H](CCC(=O)O)NC(=O)[C@H](CCC(=O)O)NC(=O)[C@H](CCC(=O)O)NC(=O)[C@H](CC(C)C)NC(=O)[C@H](CCC(N)=O)NC(=O)[C@H](CCCCN)NC(=O)[C@H](CO)NC(=O)[C@H](CC(C)C)NC(=O)[C@H](CC(=O)O)NC(=O)[C@H](CO)NC(=O)[C@@H](NC(=O)[C@H](Cc1ccccc1)NC(=O)[C@@H](NC(=O)CNC(=O)[C@H](CCC(=O)O)NC(=O)CNC(=O)[C@@H](N)Cc1c[nH]cn1)[C@@H](C)O)[C@@H](C)O)C(C)C)C(=O)N[C@@H](CCC(=O)O)C(=O)N[C@@H](Cc1c[nH]c2ccccc12)C(=O)N[C@@H](CC(C)C)C(=O)N[C@@H](CCCCN)C(=O)N[C@@H](CCC(N)=O)C(=O)NCC(=O)NCC(=O)N1CCC[C@H]1C(=O)N[C@@H](CO)C(=O)N[C@@H](CCCCN)C(=O)N[C@@H](CCC(=O)O)C(=O)N[C@H](C(=O)N[C@H](C(=O)N[C@@H](CO)C(=O)NCCOCCOCCOCC(=O)NCCOCCOCC(=O)NCCCC[C@H](NC(CCc1ccccc1)C(=O)O)C(=O)N1CCC[C@H]1C(=O)O)[C@@H](C)CC)[C@@H](C)CC (stereo partly shown) [Compound 5715] | – | – | – | mean diastolic blood pressure at week 5 [1]: 112 mmHg; mean heart rate at week 5 [1]: 381; mean systolic blood pressure at week 5 [1]: 161 mmHg; IC50 (ACE from rabbit lung): 260 nM |
| CC[C@H](C)[C@H](NC(=O)[C@H](Cc1ccccc1)NC(=O)[C@H](CCC(=O)O)NC(=O)[C@H](CCCCN)NC(=O)[C@H](C)NC(=O)[C@H](C)NC(=O)[C@H](CCC(N)=O)NC(=O)CNC(=O)[C@H](CCC(=O)O)NC(=O)[C@H](CC(C)C)NC(=O)[C@H](Cc1ccc(O)cc1)NC(=O)[C@H](CO)NC(=O)[C@H](CO)NC(=O)[C@@H](NC(=O)[C@H](CC(=O)O)NC(=O)[C@H](CO)NC(=O)[C@@H](NC(=O)[C@H](Cc1ccccc1)NC(=O)[C@@H](NC(=O)CNC(=O)[C@H](CCC(=O)O)NC(=O)[C@H](C)NC(=O)[C@H](Cc1c[nH]cn1)NC(=O)COCCOCCNC(=O)[C@@H]1CCCN1C(=O)[C@H](C)NC(CCc1ccccc1)C(=O)O)[C@@H](C)O)[C@@H](C)O)C(C)C)C(=O)N[C@@H](C)C(=O)N[C@@H](Cc1c[nH]c2ccccc12)C(=O)N[C@@H](CC(C)C)C(=O)N[C@H](C(=O)N[C@@H](CCCCN)C(=O)NCC(=O)N[C@@H](CCCNC(=N)N)C(N)=O)C(C)C (stereo partly drawn) [Compound 4983, (R,S)-1-[N^2-(1-carboxy-3-phenylpropyl)-L-ala]-L-pro-8-amino-3,6-dioxaoctanoyl-GLP-1-(7-36) amide] | enhance glucose-lowering action compared to GLP-1 | > 80% | – | – |
| GLP-1(7-37)-GG-(S)-2,6-diamino-1-(thiazolidin-2-cyano-3-yl)hexan-1-one amide | – | – | expected product ions were not observed; DPP-IV resistant under the test conditions | – |
| GLP-1(7-37)-GG-(S)-2,6-diamino-1-(thiazolidin-3-yl)hexan-1-one amide | – | – | expected product ions were not observed; DPP-IV resistant under the test conditions | – |
| CC[C@H](C)[C@H](NC(=O)[C@H](Cc1ccccc1)NC(=O)[C@H](CCC(=O)O)NC(=O)[C@H](CCCCN)NC(=O)[C@H](C)NC(=O)[C@H](C)NC(=O)[C@H](CCC(N)=O)NC(=O)CNC(=O)[C@H](CCC(=O)O)NC(=O)[C@H](CC(C)C)NC(=O)[C@H](Cc1ccc(O)cc1)NC(=O)[C@H](CO)NC(=O)[C@H](CO)NC(=O)[C@@H](NC(=O)[C@H](CC(=O)O)NC(=O)[C@H](CO)NC(=O)[C@@H](NC(=O)[C@H](Cc1ccccc1)NC(=O)[C@@H](NC(=O)CNC(=O)[C@H](CCC(=O)O)NC(=O)[C@H](C)NC(=O)[C@H](Cc1c[nH]cn1)NC(=O)COCCOCCNC(=O)COCCOCCNC(=O)[C@@H]1CCCN1C(=O)[C@H](C)NC(CCc1ccccc1)C(=O)O)[C@@H](C)O)[C@@H](C)O)C(C)C)C(=O)N[C@@H](C)C(=O)N[C@@H](Cc1c[nH]c2ccccc12)C(=O)N[C@@H](CC(C)C)C(=O)N[C@H](C(=O)N[C@@H](CCCCN)C(=O)NCC(=O)N[C@@H](CCCNC(=N)N)C(N)=O)C(C)C (stereo partly drawn) [Compound 4984, (R,S)-1-[N^2-(1-carboxy-3-phenylpropyl)-L-ala]-L-pro-8-amino-3,6-dioxaoctanoyl-8-amino-3,6-dioxaoctanoyl-GLP-1-(7-36) amide] | enhance glucose-lowering action compared to GLP-1; also recorded: prolonged effect 4 hours after dosing | > 80% | – | – |
